The values below come from PubChem BioAssay AID1918949 (Molecular Pharmacology Branch, DTP, NCI, 2023).

Values joined by “and” are separate entries in the source; they are usually repeats but may differ in a detail not shown here. Equal entries are not always repeated.

Broadly, the viability, T/C is the result in the treated group divided by that in the control group, in per cent. The IC50 is the concentration at which inhibition is half-maximal.

For the experiment, the system named is K24384-001-R-PDC complex spheroid viability. Description: Anticancer human tumor K24384-001-R-PDC patient-derived pancreatic adenocarcinoma cell line growth inhibition. Particulars: for viability, T/C: stronger effect = lower value. From the text:
Multicellular complex tumor spheroid response to LSD1 Inhibitor Iadademstat in combination with a variety of drugs and investigational agents in selected tumor cell lines
The current study was undertaken to assess response to LSD1 inhibitors in combination with standard-of-care drugs and investigational agents in solid tumor complex spheroid models as well as in the K-562 leukemia. Complex spheroids include a stromal component modeled by human endothelial cells (HUVEC) and fibroblasts modeled by human mesenchymal stem cells (MSCs). The concentration ranges selected for each drug and investigational agent were based upon clinically achievable concentrations if the clinical Cmax of the agent was known.
Compounds. The drugs and investigational agents used in this study are listed on Table 1. All of the agents used, including staurosporine (NSC755774) and gemcitabine (NSC613327), were obtained from the Developmental Therapeutics Program, NCI. FDA-approved anticancer drugs are available from the NCI at http://dtp.nci.nih.gov/branches/dscb/oncology_drugset_explanation.html. Drugs and investigational agents were >95% pure by proton nuclear magnetic resonance (NMR) and liquid chromatography/mass spectrometry (LC/MS). Stock solutions were prepared at 400x in DMSO, stored at -70 degrees C, and diluted in fresh medium prior to their use. The final concentration of DMSO in cell culture wells never exceeded 0.25% (v/v). The FDA-approved anticancer drug set is available from the Developmental Therapeutics Program at https://dtp.cancer.gov/organization/dscb/obtaining/available_plates.htm. All drugs and investigational agents were tested over a range starting from a high concentration at or near the clinical Cmax and decreasing in half-log increments. If the clinical Cmax for an agent had not been determined, the highest concentration tested was 10 microM.
Cell Lines. The patient-derived cancer cell (PDC) lines: 292921-168-R-J2-PDC, K24384-001-R-PDC, and 521955-158-R2-J5-PDC pancreatic carcinomas, 556581-035-R-J1 ovarian carcinoma, 324938-238-R-J1-PDC, 855422-203-R-J1-PDC and 883617-216-R-J1-PDC urothelial bladder carcinomas, 743489-274-T-PDC renal cell carcinoma, 138582-R-J1 Merkel cell tumor, K60290-347-R-J1 and K57222-313-R-J1-PDC glioblastomas, 653999-131-R-J2-PDC, LG0703-F948-PDC, and 349418-098-R-PDC non-small cell lung carcinomas, 885512-296-R-J2-PDC, 171881-019-R-J1-PDC breast carcinomas and 186277-243-T-J2-PDC and 233499-124-R-J2-PDC colon carcinomas were obtained from the NCI Patient-Derived Models Repository (PDMR, https://pdmr.cancer.gov). The established cell lines NCI/ADR-RES (RRID:CVCL_14520 and OVCAR-5 (RRID:CVCL_1628) ovarian carcinomas, 786-O (RRID:CVCL_1051) and A498 (RRID:CVCL_A498) renal cell carcinoma, NCI-H211 (ATCC, cat. CRL-5824; RRID:CVCL_1529), NCI-H196 (ATCC, cat. CRL-5823, RRID:CVCL_1509), SW 1271 (ATCC, cat. CRL-2177, RRID:CVCL_1716) and NCI-H1876 (ATCC, cat. CRL-5902, RRID:CVCL_1503) small cell lung carcinomas, MDA-MB-231 (RRID:CVCL_0062) and MDA-MB-468 (RRID:CVCL_0419)breast carcinomas (10-12). Pooled donor human umbilical vein endothelial cells (HUVEC, Lonza, cat. CC-2519) and human mesenchymal stem cells (hMSC, Lonza, cat. PT-2501) were purchased from Lonza (Walkersville, MD).
Cell Culture. All cells were maintained in an incubator at 37 degrees C and 5% CO2 with 95% humidity. The PDC lines were cultured according to standard operating procedures established by the NCI PDMR (https://pdmr.cancer.gov). Briefly all PDCs were thawed and cultured in Matrigel-coated flasks prepared with a working solution of 1X Ham's F-12 nutrient mix, without supplementation (Invitrogen, Waltham, MA, cat. 11765054), 100 U/mL penicillin-streptomycin (Invitrogen, cat. 15140122), and 2.5% Matrigel (Corning Inc., Corning, NY, cat. 354248) for the first three passages. […]
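Further: spheroids exposed to agents for seven days before luminescence viability reading.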

As to `CC(C)c1c(-c2ccccc2)nc2c(C#N)c[nH]n2c1=O`, the viability, T/C runs as follows: (compound 0.0316 µM) 89.9% and 82.5%; (compound 0.1 µM) 88.6% and 104%; (compound 0.316 µM) 96.9% and 93.2%; (compound 1 µM) 94.9% and 81.5%; (compound 3.16 µM) 97.4% and 69.9%; (compound 10 µM) 104% and 91.6%. Besides, the IC50 (curve of compound) is > 10000 nM.
As to `CC1(C)CCC(CN2CCN(c3ccc(C(=O)NS(=O)(=O)c4ccc(NCC5CCOCC5)c([N+](=O)[O-])c4)c(Oc4cnc5[nH]ccc5c4)c3)CC2)=C(c2ccc(Cl)cc2)C1`, the viability, T/C by setting is: (compound 0.0316 µM) 95.9% and 81.9%; (compound 0.1 µM) 97.3% and 90.8%; (compound 0.316 µM) 96.5% and 92.7%; (compound 1 µM) 106% and 78.1%; (compound 3.16 µM) 63.5% and 67.6%; (compound 10 µM) 0.81% and 1.22%. Moreover, the IC50 (curve of compound) was 4050 nM and 4230 nM.
On to `CC1COCCN1c1cc(C2(S(C)(=N)=O)CC2)nc(-c2ccnc3[nH]ccc23)n1` (centres undefined), for which the viability, T/C is 103% and 94.9% (compound 0.0316 µM); 97.9% and 102% (compound 0.1 µM); 107% and 81.7% (compound 0.316 µM); 75.8% and 67.1% (compound 1 µM); 45.8% and 42.4% (compound 3.16 µM); 48.6% and 44.5% (compound 10 µM). For the same compound, the IC50 (curve of compound) was 2830 nM and 2530 nM.
For `CCN(c1cc(-c2ccc(CN3CCOCC3)cc2)cc(C(=O)NCc2c(C)cc(C)[nH]c2=O)c1C)C1CCOCC1`, the viability, T/C by setting is: (compound 0.00949 µM) 114% and 95.8%; (compound 0.03 µM) 107% and 113%; (compound 0.0949 µM) 117% and 106%; (compound 0.3 µM) 96.4% and 99.3%; (compound 0.949 µM) 81.8% and 84.4%; (compound 3 µM) 63.5% and 72.9%. Besides, the concentration for half-maximal inhibition (IC50) (curve of compound) is > 3000 nM.
Consider `COc1cc(C2c3cc4c(cc3C(OC3OC5COC(C)OC5C(O)C3O)C3COC(=O)C23)OCO4)cc(OC)c1O` (centres undefined), for which the viability, T/C was 96.2% and 95.2% (compound 0.00949 µM); 91.9% and 98.1% (compound 0.03 µM); 82% and 74.3% (compound 0.0949 µM); 62.3% and 52.5% (compound 0.3 µM); 59.8% and 49.5% (compound 0.949 µM); 42.1% and 33% (compound 3 µM). The half-inhibitory concentration (IC50) (curve of compound) was 1590 nM and 461 nM.
Turning to `COc1ccc([C@@H](O)c2cc(-c3ncnc4cc(N5CCOCC5)ccc34)c(F)cc2Cl)nn1`, the viability, T/C is 102% and 111% (compound 0.0316 µM); 94.1% and 102% (compound 0.1 µM); 94.3% and 82.1% (compound 0.316 µM); 68.3% and 63.3% (compound 1 µM); 39.1% and 44.5% (compound 3.16 µM); 15.3% and 16.4% (compound 10 µM). For the same compound, the IC50 (curve of compound) was 2070 nM and 2110 nM.
For `NC1CC1c1ccc(-c2cccc(O)c2)cc1` (centres undefined), where the note is “compound 0.1 µM”, the viability, T/C was 108%. The IC50 (compound alone, run of 02/21/2022) is > 10000 nM.
Consider `NC1CCC(NC2CC2c2ccccc2)CC1` (centres undefined), for which, under “compound 0.316 µM”, the viability, T/C was 83.6% and 74.8%. For the setting “compound alone, run of 02/15/2022”, the half-inhibitory concentration (IC50) is > 10000 nM.
Turning to `NS(=O)(=O)OCC1CC(n2ccc3c(NC4CCc5ccccc54)ncnc32)CC1O` (centres undefined), the viability, T/C is, setting by setting: (compound 0.00949 µM) 98.5% and 116%; (compound 0.03 µM) 123% and 143%; (compound 0.0949 µM) 109% and 126%; (compound 0.3 µM) 52.2% and 53.9%; (compound 0.949 µM) 34.3% and 34.6%; (compound 3 µM) 19.9% and 22.4%. For the same compound, under “curve of compound”, the IC50 is 338 nM and 362 nM.
With `Nc1ccccc1NC(=O)c1ccc(CNC(=O)OCc2cccnc2)cc1`, the viability, T/C runs as follows: (compound 0.00949 µM) 95.6% and 102%; (compound 0.03 µM) 102% and 108%; (compound 0.0949 µM) 89.1% and 128%; (compound 0.3 µM) 69.4% and 70.9%; (compound 0.949 µM) 11.8% and 9.62%; (compound 3 µM) 0.21% and 0.26%. Besides, where the note is “curve of compound”, the IC50 was 438 nM and 432 nM.
`O=C(C=Cc1cccc(S(=O)(=O)Nc2ccccc2)c1)NO`: the viability, T/C runs as follows: (compound 0.00949 µM) 120% and 101%; (compound 0.03 µM) 127% and 112%; (compound 0.0949 µM) 114% and 105%; (compound 0.3 µM) 38% and 43.9%; (compound 0.949 µM) 4.5% and 5.62%; (compound 3 µM) 0.23% and 0.24%. Further, the IC50 (curve of compound) is 250 nM and 268 nM.
With `O=C(c1cc(Cc2n[nH]c(=O)c3ccccc23)ccc1F)N1CCN(C(=O)C2CC2)CC1`, the viability, T/C runs as follows: (compound 0.0316 µM) 104% and 94.8%; (compound 0.1 µM) 97.3% and 91.9%; (compound 0.316 µM) 91% and 88.9%; (compound 1 µM) 85.5% and 81.4%; (compound 3.16 µM) 82.9% and 67.7%; (compound 10 µM) 84.4% and 70.1%. For the setting “curve of compound”, the IC50 was > 10000 nM.
